{"source": "patent US7851474B2", "about": "“Dipiperazinyl ketones and related analogues” (Neurogen Corporation, priority 2005, dated 2010)", "target": "T1, chimeric human H3 receptor (Homo sapiens, UniProt Q9Y5N1, E19D)", "T1 construct": "made in house; host or cells: Sf9 insect cells (baculovirus infection); P2 membrane preparation", "T1 sequence (Q9Y5N1 with tags, fused parts or gaps E19D)": "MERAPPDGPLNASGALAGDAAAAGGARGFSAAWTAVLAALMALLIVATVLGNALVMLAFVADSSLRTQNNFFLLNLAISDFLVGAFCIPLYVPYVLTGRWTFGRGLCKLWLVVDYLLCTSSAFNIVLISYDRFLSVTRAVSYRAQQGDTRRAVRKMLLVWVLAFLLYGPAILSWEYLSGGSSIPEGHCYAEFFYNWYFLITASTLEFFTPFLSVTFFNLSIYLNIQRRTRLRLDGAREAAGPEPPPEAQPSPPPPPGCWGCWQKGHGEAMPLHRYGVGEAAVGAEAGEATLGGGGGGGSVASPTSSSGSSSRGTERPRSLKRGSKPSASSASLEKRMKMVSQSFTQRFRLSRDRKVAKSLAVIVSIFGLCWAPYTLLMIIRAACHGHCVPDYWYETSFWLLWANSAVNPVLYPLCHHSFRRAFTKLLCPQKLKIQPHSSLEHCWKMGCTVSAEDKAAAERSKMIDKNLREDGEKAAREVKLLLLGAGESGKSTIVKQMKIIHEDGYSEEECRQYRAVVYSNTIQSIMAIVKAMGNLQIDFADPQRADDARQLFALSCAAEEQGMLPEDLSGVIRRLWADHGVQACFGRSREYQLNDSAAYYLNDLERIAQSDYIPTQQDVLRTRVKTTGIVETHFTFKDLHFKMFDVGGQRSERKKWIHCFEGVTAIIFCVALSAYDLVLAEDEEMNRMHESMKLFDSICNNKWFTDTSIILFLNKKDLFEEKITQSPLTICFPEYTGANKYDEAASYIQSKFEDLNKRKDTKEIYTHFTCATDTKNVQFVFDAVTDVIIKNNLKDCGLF", "experiment": "Chimeric human H3 receptor GTP binding assay (agonist-stimulated GTP-gamma35S binding, Example 7)", "type": "biochemical", "in_short": "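IC50 values come from non-linear regression of dose-response curves of filter-bound GTP-gamma^35S, counted by scintillation. Membranes were from infected Sf9 cells carrying receptor plus G-protein subunits, 35 μg/tube, with 10 μM GDP present.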", "key": {"[1]": {"conditions": "Table II \"Ki\", symbol \"*\": Ki in the assay of Example 7, read-out: Ki"}, "[2]": {"conditions": "assay of Example 7, symbol * in column headed Ki of Table II, read-out: Ki"}, "[3]": {"conditions": "Table II, assay of Example 7, \"*\" in Ki, read-out: Ki"}, "[4]": {"conditions": "Table II, \"*\" in Ki, assay of Example 7, read-out: Ki"}, "[5]": {"conditions": "assay of Example 7, \"*\" in Ki of Table II, read-out: Ki"}, "[6]": {"conditions": "\"*\" in Ki of Table II, assay of Example 7, read-out: Ki"}}, "note": "Read-outs that look alike come from different tables or passages of the source.", "data": [{"smiles": "CCCCc1ccc(-c2cnc(N3CCN(CC(=O)N4CCN(C5CCC5)CC4)CC3)cn2)cc1", "note": "[Compound 901, 2-(4-butylphenyl)-5-{4-[2-(4-cyclobutylpiperazin-1-yl)-2-oxoethyl]piperazin-1-yl}pyrazine]", "values": [{"measurement": "Ki", "setting": "[1]", "result": "< 1000", "unit": "nM"}]}, {"smiles": "O=C(CN1CCC2(CC1)C(=O)Nc1ccccc12)N1CCN(C2CCC2)CC1", "note": "[Compound 433, 1′-[2-(4-cyclobutylpiperazin-1-yl)-2-oxoethyl]spiro[indole-3,4′-piperidin]-2(1H)-one]", "values": [{"measurement": "Ki", "setting": "[2]", "result": "< 1000", "unit": "nM"}]}, {"smiles": "O=C(NCC(F)(F)F)c1cccc(N2CCN(CC(=O)N3CCN(C4CCC4)CC3)CC2)c1", "note": "[Compound 1077, 3-{4-[2-(4-cyclobutylpiperazin-1-yl)-2-oxoethyl]piperazin-1-yl}-N-(2,2,2-trifluoroethyl)benzamide]", "values": [{"measurement": "Ki", "setting": "[3]", "result": "< 1000", "unit": "nM"}]}, {"smiles": "O=C(CN1CCC(N2CCCC2)CC1)N1CCN(C2CCCCC2)CC1", "note": "[Compound 806, 1-cyclohexyl-4-[(4-pyrrolidin-1-ylpiperidin-1-yl)acetyl]piperazine]", "values": [{"measurement": "Ki", "setting": "[1]", "result": "< 1000", "unit": "nM"}]}, {"smiles": "O=C(CN1CCN(c2cccc(C(F)(F)F)c2)CC1)N1CCN(C2CCC2)CC1", "note": "[Compound 590, 1-cyclobutyl-4-({4-[3-(trifluoromethyl)phenyl]piperazin-1-yl}acetyl)piperazine]", "values": [{"measurement": "Ki", "result": "< 1000", "unit": "nM"}]}, {"smiles": "CCN(C(=O)c1cccc(N2CCN(CC(=O)N3CCN(C4CCC4)CC3)CC2)c1)C1CCCCC1", "note": "[Compound 1069, 3-{4-[2-(4-cyclobutylpiperazin-1-yl)-2-oxoethyl]piperazin-1-yl}-N-cyclohexyl-N-ethylbenzamide]", "values": [{"measurement": "Ki", "setting": "[3]", "result": "< 1000", "unit": "nM"}]}, {"smiles": "CC(C)N1CCN(C(=O)CN2CCN(c3cccc(Cl)c3Cl)CC2)CC1", "note": "[Compound 262, 1-(2,3-dichlorophenyl)-4-[2-(4-isopropylpiperazin-1-yl)-2-oxoethyl]piperazine]", "values": [{"measurement": "Ki", "result": "< 1000", "unit": "nM"}]}, {"smiles": "O=C(CN1CCN(c2ccc(C(=O)N3CC=CCC3)cc2)CC1)N1CCN(C2CCC2)CC1", "note": "[Compound 593, 1-cyclobutyl-4-({4-[4-(3,6-dihydropyridin-1(2H)-ylcarbonyl)phenyl]piperazin-1-yl}acetyl)piperazine]", "values": [{"measurement": "Ki", "setting": "[4]", "result": "< 1000", "unit": "nM"}]}, {"smiles": "O=C(CN1CCN(c2ccc(Cl)nn2)CC1)N1CCN(C2CCC2)CC1", "note": "[Compound 1087, 3-chloro-6-{4-[2-(4-cyclobutylpiperazin-1-yl)-2-oxoethyl]piperazin-1-yl}pyridazine]", "values": [{"measurement": "Ki", "setting": "[3]", "result": "< 1000", "unit": "nM"}]}, {"smiles": "CCCCNC(=O)c1cccc(N2CCN(CC(=O)N3CCN(C4CCC4)CC3)CC2)c1", "note": "[Compound 1263, N-butyl-3-{4-[2-(4-cyclobutylpiperazin-1-yl)-2-oxoethyl]piperazin-1-yl}benzamide]", "values": [{"measurement": "Ki", "setting": "[5]", "result": "< 1000", "unit": "nM"}]}, {"smiles": "CC(=O)N1CCN(CC(=O)N2CCN(C3CCCC3)CC2)CC1", "note": "[Compound 485, 1-acetyl-4-[2-(4-cyclopentylpiperazin-1-yl)-2-oxoethyl]piperazine]", "values": [{"measurement": "Ki", "setting": "[6]", "result": "< 1000", "unit": "nM"}]}, {"smiles": "Cc1cccc(-c2ccc(N3CCN(CC(=O)N4CCN(C5CCC5)CC4)CC3)cc2)c1", "note": "[Compound 762, 1-cyclobutyl-4-{[4-(3′-methylbiphenyl-4-yl)piperazin-1-yl]acetyl}piperazine]", "values": [{"measurement": "Ki", "setting": "[4]", "result": "< 1000", "unit": "nM"}]}, {"smiles": "O=C(NCC1CC1)c1ccc(N2CCN(CC(=O)N3CCN(C4CCC4)CC3)CC2)nc1", "note": "[Compound 1176, 6-{4-[2-(4-cyclobutylpiperazin-1-yl)-2-oxoethyl]piperazin-1-yl}-N-(cyclopropylmethyl) nicotinamide]", "values": [{"measurement": "Ki", "setting": "[5]", "result": "< 1000", "unit": "nM"}]}, {"smiles": "COc1ccc(-c2ccc(N3CCN(CC(=O)N4CCN(C5CCC5)CC4)CC3)cc2)cc1", "note": "[Compound 781, 1-cyclobutyl-4-{[4-(4′-methoxybiphenyl-4-yl)piperazin-1-yl]acetyl}piperazine]", "values": [{"measurement": "Ki", "setting": "[1]", "result": "< 1000", "unit": "nM"}]}, {"smiles": "COc1cccc(OC)c1-c1ccc(N2CCN(CC(=O)N3CCN(C4CCC4)CC3)CC2)nn1", "note": "[Compound 1057, 3-{4-[2-(4-cyclobutylpiperazin-1-yl)-2-oxoethyl]piperazin-1-yl}-6-(2,6-dimethoxyphenyl) pyridazine]", "values": [{"measurement": "Ki", "setting": "[3]", "result": "< 1000", "unit": "nM"}]}, {"smiles": "O=C1CCc2cc(N3CCN(C(=O)OCC(=O)N4CCN(C5CCCC5)CC4)CC3)ccc21", "note": "[Compound 909, 2-(4-cyclopentylpiperazin-1-yl)-2-oxoethyl 4-(1-oxo-2,3-dihydro-1H-inden-5-yl)piperazine-1-carboxylate]", "values": [{"measurement": "Ki", "setting": "[1]", "result": "< 1000", "unit": "nM"}]}, {"smiles": "N#Cc1cccc(-c2ccc(N3CCN(CC(=O)N4CCN(C5CCC5)CC4)CC3)nn2)c1", "note": "[Compound 997, 3-(6-{4-[2-(4-cyclobutylpiperazin-1-yl)-2-oxoethyl]piperazin-1-yl}pyridazin-3-yl)benzonitrile]", "values": [{"measurement": "Ki", "setting": "[3]", "result": "< 1000", "unit": "nM"}]}, {"smiles": "CC(C)(C)c1ccc(C(=O)NC2CCN(CC(=O)N3CCN(C4CCC4)CC3)C2)cc1", "note": "(stereo not shown) [Compound 1152, 4-tert-butyl-N-{1-[2-(4-cyclobutylpiperazin-1-yl)-2-oxoethyl]pyrrolidin-3-yl}benzamide]", "values": [{"measurement": "Ki", "setting": "[5]", "result": "< 1000", "unit": "nM"}]}, {"smiles": "O=C(NC1CCC1)c1ccc(N2CCN(CC(=O)N3CCN(C4CCC4)CC3)CC2)nc1", "note": "[Compound 1268, N-cyclobutyl-6-{4-[2-(4-cyclobutylpiperazin-1-yl)-2-oxoethyl]piperazin-1-yl}nicotinamide]", "values": [{"measurement": "Ki", "setting": "[5]", "result": "< 1000", "unit": "nM"}]}, {"smiles": "Cc1ccc(-c2ccc(N3CCN(CC(=O)N4CCN(C5CCC5)CC4)CC3)cc2)c(F)c1", "note": "[Compound 704, 1-cyclobutyl-4-{[4-(2′-fluoro-4′-methylbiphenyl-4-yl)piperazin-1-yl]acetyl}piperazine]", "values": [{"measurement": "Ki", "setting": "[4]", "result": "< 1000", "unit": "nM"}]}, {"smiles": "COc1cccc(N2CCN(CC(=O)N3CCN(C4CCC4)CC3)CC2)c1", "note": "[Compound 759, 1-cyclobutyl-4-{[4-(3-methoxyphenyl)piperazin-1-yl]acetyl}piperazine]", "values": [{"measurement": "Ki", "setting": "[4]", "result": "< 1000", "unit": "nM"}]}, {"smiles": "O=C(CN1CCN(c2ncc(F)cn2)CC1)N1CCN(C2CCC2)CC1", "note": "[Compound 916, 2-{4-[2-(4-cyclobutylpiperazin-1-yl)-2-oxoethyl]piperazin-1-yl}-5-fluoropyrimidine]", "values": [{"measurement": "Ki", "setting": "[1]", "result": "< 1000", "unit": "nM"}]}, {"smiles": "O=C(CN1CCN(c2ccc(-c3ccc(Cl)c(C(F)(F)F)c3)cc2)CC1)N1CCN(C2CCC2)CC1", "note": "[Compound 463, 1-[4′-chloro-3′-(trifluoromethyl)biphenyl-4-yl]-4-[2-(4-cyclobutylpiperazin-1-yl)-2-oxoethyl]piperazine]", "values": [{"measurement": "Ki", "setting": "[6]", "result": "< 1000", "unit": "nM"}]}, {"smiles": "COc1ccc(Cl)cc1-c1cnc(N2CCN(CC(=O)N3CCN(C4CCC4)CC3)CC2)cn1", "note": "[Compound 911, 2-(5-chloro-2-methoxyphenyl)-5-{4-[2-(4-cyclobutylpiperazin-1-yl)-2-oxoethyl]piperazin-1-yl}pyrazine]", "values": [{"measurement": "Ki", "setting": "[1]", "result": "< 1000", "unit": "nM"}]}, {"smiles": "O=C(NC1CCCC1)c1ccc(N2CCN(CC(=O)N3CCN(C4CCC4)CC3)CC2)cc1", "note": "[Compound 1141, 4-{4-[2-(4-cyclobutylpiperazin-1-yl)-2-oxoethyl]piperazin-1-yl}-N-cyclopentylbenzamide]", "values": [{"measurement": "Ki", "setting": "[5]", "result": "< 1000", "unit": "nM"}]}, {"smiles": "Cc1cccc(C)c1N1CCN(CC(=O)N2CCN(C3CCCC3)CC2)CC1", "note": "[Compound 835, 1-cyclopentyl-4-{[4-(2,6-dimethylphenyl)piperazin-1-yl]acetyl}piperazine]", "values": [{"measurement": "Ki", "setting": "[1]", "result": "< 1000", "unit": "nM"}]}, {"smiles": "CCC(C)N1CCN(C(=O)CN2CCN(c3ccc(C#N)cc3)CC2)CC1", "note": "(stereo not shown) [Compound 1150, 4-{4-[2-(4-sec-butylpiperazin-1-yl)-2-oxoethyl]piperazin-1-yl}benzonitrile]", "values": [{"measurement": "Ki", "setting": "[5]", "result": "< 1000", "unit": "nM"}]}, {"smiles": "Cc1cc(N2CCN(CC(=O)N3CCN(C(C)C)CC3)CC2)ccc1Cl", "note": "[Compound 353, 1-(4-chloro-3-methylphenyl)-4-[2-(4-isopropylpiperazin-1-yl)-2-oxoethyl]piperazine]", "values": [{"measurement": "Ki", "setting": "[2]", "result": "< 1000", "unit": "nM"}]}, {"smiles": "O=C(CN1CCN(c2ccc(Cl)cc2)CC1)N1CCN(C2CCCC2)CC1", "note": "[Compound 358, 1-(4-chlorophenyl)-4-[2-(4-cyclopentylpiperazin-1-yl)-2-oxoethyl]piperazine]", "values": [{"measurement": "Ki", "setting": "[2]", "result": "< 1000", "unit": "nM"}]}, {"smiles": "COc1ccc(-c2ccc(N3CCN(CC(=O)N4CCN(C5CCC5)CC4)CC3)cc2)cc1C", "note": "[Compound 780, 1-cyclobutyl-4-{[4-(4′-methoxy-3′-methylbiphenyl-4-yl)piperazin-1-yl]acetyl}piperazine]", "values": [{"measurement": "Ki", "setting": "[1]", "result": "< 1000", "unit": "nM"}]}, {"smiles": "CCCCC(=O)NC1CCN(CC(=O)N2CCN(C3CCC3)CC2)C1", "note": "(stereo not shown) [Compound 1257, N-{1-[2-(4-cyclobutylpiperazin-1-yl)-2-oxoethyl]pyrrolidin-3-yl}pentanamide]", "values": [{"measurement": "Ki", "setting": "[5]", "result": "< 1000", "unit": "nM"}]}, {"smiles": "CCN(C(=O)c1ccc(N2CCN(CC(=O)N3CCN(C4CCC4)CC3)CC2)nc1)C(C)C", "note": "[Compound 1168, 6-{4-[2-(4-cyclobutylpiperazin-1-yl)-2-oxoethyl]piperazin-1-yl}-N-ethyl-N-isopropylnicotinamide]", "values": [{"measurement": "Ki", "setting": "[5]", "result": "< 1000", "unit": "nM"}]}, {"smiles": "Cc1ccc(F)c(-c2cnc(N3CCN(CC(=O)N4CCN(C5CCC5)CC4)CC3)cn2)c1Cl", "note": "[Compound 897, 2-(2-chloro-6-fluoro-3-methylphenyl)-5-{4-[2-(4-cyclobutylpiperazin-1-yl)-2-oxoethyl]piperazin-1-yl}pyrazine]", "values": [{"measurement": "Ki", "setting": "[1]", "result": "< 1000", "unit": "nM"}]}, {"smiles": "Cc1ccc(C(=O)NC2CCN(CC(=O)N3CCN(C4CCC4)CC3)CC2)cc1C", "note": "[Compound 1212, N-{1-[2-(4-cyclobutylpiperazin-1-yl)-2-oxoethyl]piperidin-4-yl}-3,4-dimethylbenzamide]", "values": [{"measurement": "Ki", "setting": "[5]", "result": "< 1000", "unit": "nM"}]}, {"smiles": "O=C1NC2(CCN(CC(=O)N3CCN(C4CCC4)CC3)CC2)c2ncccc21", "note": "[Compound 436, 1-[2-(4-cyclobutylpiperazin-1-yl)-2-oxoethyl]spiro[piperidine-4,7′-pyrrolo[3,4-b]pyridin]-5′(6′H)-one]", "values": [{"measurement": "Ki", "setting": "[2]", "result": "< 1000", "unit": "nM"}]}, {"smiles": "O=C(CN1CCN(c2cnc(-c3ccc(Cl)cc3F)cn2)CC1)N1CCN(C2CCC2)CC1", "note": "[Compound 902, 2-(4-chloro-2-fluorophenyl)-5-{4-[2-(4-cyclobutylpiperazin-1-yl)-2-oxoethyl]piperazin-1-yl}pyrazine]", "values": [{"measurement": "Ki", "setting": "[1]", "result": "< 1000", "unit": "nM"}]}, {"smiles": "O=C(CN1CCN(c2cnc(-c3cccc(OC(F)(F)F)c3)cn2)CC1)N1CCN(C2CCC2)CC1", "note": "[Compound 937, 2-{4-[2-(4-cyclobutylpiperazin-1-yl)-2-oxoethyl]piperazin-1-yl}-5-[3-(trifluoromethoxy)phenyl] pyrazine]", "values": [{"measurement": "Ki", "setting": "[1]", "result": "< 1000", "unit": "nM"}]}]}
